Species on record: Rattus norvegicus
Experiment: Binding of [3H]diprenorphine to rat brain membranes was evaluated and the dissociation constant (KD) was determined.
Set-up: species or system Membrane

## C=CCN1CC[C@]23c4c5ccc(O)c4O[C@H]2C(=O)CC[C@@]3(O)[C@H]1C5 [NALOXONE]
  Kd: 0.01 µM

— ChEMBL document CHEMBL1124775 (J Med Chem, 1990)
